# Reference: US10413581B2, “Combination, composition, and method of administering the combination or composition to animals” (Phibro Animal Health Corporation, priority 2014, dated 2019)
# Assays:
# Type in all cases: in vivo
# [1] = test system: coccidial contaminated litter; test: Example 2: live performance of male broiler chickens, coccidial contaminated litter added to pens; conditions: 22 ppm Virginiamycin, throughout the test
# Method: In this example, the live performance of male broiler chickens during a standard diet program with and without an embodiment of the disclosed combination was determined. In this embodiment, the combination comprised Virginiamycin and different levels of the composition, particularly 0 ppm, 150 ppm, 200 ppm, and 250 ppm, and further comprising Avatec 90. A disease challenge was presented in each pen by adding coccidial contaminated litter to the pen.
# coccidia = test: Example 10: composition in combination with Monensin: performance, total coccidia oocysts per gram; conditions: Composition 250 ppm, Monensin 68 ppm, alone or combined; for Adj. FCR / Feed Intake / Wt. Gain: D 0-42
# Method: (§1) In this examples the effect of a composition comprising Quillaja saponaria and Yucca schidigera in combination with Monensin was determined. In some embodiments, the composition was a commercial product sold under the trade name MAGNI-PHI by Phibro Animal Health Corporation. Four treatment regimens were used: a control with no medication; 250 ppm of the composition; 68 ppm Monensin; and 250 ppm composition in combination with 68 ppm Monensin.
# (§2) On Days 14, 21, and 28 fresh fecal samples were collected from each pen. These representative samples were tested to determine the degree of coccidia oocysts per gram of litter, by determining oocysts shedding/cycling. Oocysts per gram were determined for each sample.
# E. gallopavonis = test: Example 10: oocysts per gram fecal material, E. gallopavonis; conditions: Composition 250 ppm, Monensin 68 ppm, alone or combined
# Method: as §1, §2
# E. meleagrimitis = test: Example 10: oocysts per gram fecal material, E. meleagrimitis; conditions: Composition 250 ppm, Monensin 68 ppm, alone or combined
# Method: as §1, §2
# E. adenoeides = test: Example 10: oocysts per gram fecal material, E. adenoeides; conditions: Composition 250 ppm, Monensin 68 ppm, alone or combined
# Method: as §1, §2
compound,measurement,setting,value
Virginiamycin,feed conversion rates,[1],improved feed conversion rates
CC[C@@]1([C@@H]2O[C@@H]([C@H]3O[C@@](O)(CO)[C@H](C)C[C@@H]3C)C[C@@H]2C)CC[C@H]([C@]2(C)CC[C@]3(C[C@H](O)[C@@H](C)[C@@H]([C@@H](C)[C@@H](OC)[C@H](C)C(=O)O)O3)O2)O1 [Monensin],Oocysts per gram fecal material Total,coccidia; D 14,1571bc oocysts per gram
same,Oocysts per gram fecal material Total,coccidia; D 21,3409c oocysts per gram
same,Oocysts per gram fecal material Total,coccidia; D 28,252b oocysts per gram
same,Adj. FCR,coccidia; Day 14,1.473b
same,Feed Intake,coccidia; Day 14,20.04b
same,Wt. Gain,coccidia; Day 14,0.261a kg
same,Adj. FCR,coccidia; Day 28,1.562b
same,Feed Intake,coccidia; Day 28,51.81a
same,Wt. Gain,coccidia; Day 28,0.703a kg
same,Adj. FCR,coccidia; Day 42,1.707b
same,Feed Intake,coccidia; Day 42,124.77b
same,Wt. Gain,coccidia; Day 42,1.614bc kg
same,Oocysts per gram fecal material E. gallo.,E. gallopavonis; D 14,430ab oocysts per gram
same,Oocysts per gram fecal material E. gallo.,E. gallopavonis; D 21,623a oocysts per gram
same,Oocysts per gram fecal material E. gallo.,E. gallopavonis; D 28,119a oocysts per gram
same,Oocysts per gram fecal material E. mel.,E. meleagrimitis; D 14,786b oocysts per gram
same,Oocysts per gram fecal material E. mel.,E. meleagrimitis; D 21,2549c oocysts per gram
same,Oocysts per gram fecal material E. mel.,E. meleagrimitis; D 28,74b oocysts per gram
same,Oocysts per gram fecal material E. aden.,E. adenoeides; D 14,356ab oocysts per gram
same,Oocysts per gram fecal material E. aden.,E. adenoeides; D 21,237bc oocysts per gram
same,Oocysts per gram fecal material E. aden.,E. adenoeides; D 28,29b oocysts per gram
